Assay results: patent USRE38425E1, “Semicarbazones having CNS activity and pharmaceutical preparations containing same” (University of Saskatchewan Technologies, Inc., priority 1995, dated 2004)

Legend:
[1] = test system: rats; test: MES screen after oral administration to rats; conditions: oral administration to rats; for MES screen ED50: time t (h) per compound as in the table
[2] = test system: mice; conditions: intraperitoneal injection in mice; time t (h) per compound as in the table
[3] = test system: mice; test: MES screen after intraperitoneal injection in mice; type: in vivo; conditions: intraperitoneal injection in mice; time t (h) per compound as in the table
[4] = test system: rats; test: neurotoxicity screen after oral administration to rats; conditions: oral administration to rats; time t (h) per compound as in the table
[5] = test system: mice

Structure (SMILES) | MES screen 0.5 h: number of rats out of 4 which were protected ([1]; dose 50 mg/kg) | MES screen 1 h: number of rats out of 4 which were protected ([1]; dose 50 mg/kg, 1 h) | MES screen 2 h: number of rats out of 4 which were protected ([1]; dose 50 mg/kg, 2 h) | MES screen 4 h: number of rats out of 4 which were protected ([1]; dose 50 mg/kg, 4 h) | MES screen 2 h: number of rats out of 4 which were protected ([1]; dose 12.5 mg/kg, 2 h) | MES screen 4 h: number of rats out of 4 which were protected ([1]; dose 12.5 mg/kg, 4 h) | further results
NC(=O)NN=Cc1ccc(OC(=O)c2ccc(Cl)cc2)cc1 [15c] |  |  |  |  |  |  | MES screen: number of rats out of 4 which were protected ([1]; dose 12.5 mg/kg, 0.25 h): 1; MES screen: number of rats out of 4 which were protected ([1]; dose 12.5 mg/kg, 1 h): 1; MES screen: number of rats out of 4 which were protected ([1]; dose 12.5 mg/kg, 4 h): 2
NC(=O)NN=Cc1ccc(OCc2ccccc2)cc1 [15d] |  |  |  |  |  |  | MES screen: number of rats out of 4 which were protected ([1]; dose 12.5 mg/kg, 1 h): 1; MES screen: number of rats out of 4 which were protected ([1]; dose 12.5 mg/kg, 2 h): 1
NC(=O)NN=Cc1ccc(Oc2ccccc2)cc1 [Compound 4a] | 3 | 4 | 4 | 4 |  |  | 
NC(=O)NN=Cc1ccc(Oc2ccc(Cl)cc2)cc1 [Compound 4c] | 4 | 4 | 4 | 4 |  |  | MES screen 0.25 h: number of rats out of 4 which were protected ([1]; dose 50 mg/kg, 0.25 h): 4
NC(=O)NN=Cc1ccc(Oc2ccc(Br)cc2)cc1 [Compound 4d] | 4 | 4 | 4 | 4 |  |  | MES screen 0.25 h: number of rats out of 4 which were protected ([1]; dose 50 mg/kg, 0.25 h): 1
Cc1ccc(Oc2ccc(C=NNC(N)=O)cc2)cc1 [Compound 4f] | 4 | 4 | 4 | 4 |  |  | neurotoxicity screen TD50 [2]: 203.73 mg/kg; MES screen ED50 [3]: 14.65 mg/kg; MES screen 0.25 h: number of rats out of 4 which were protected ([1]; dose 50 mg/kg, 0.25 h): 3; MES screen ED50 [1]: 3.43 mg/kg; neurotoxicity screen TD50 [4]: >500 mg/kg; acPTZ screen ED50 ([5]; intraperitoneal injection in mice, time t (h) per compound as in the table): 88.55 mg/kg
NC(=O)NN=Cc1ccc(Oc2ccc(-c3ccccc3)cc2)cc1 [Compound 4g] |  |  |  |  | 3 | 1 | 
COc1ccc(Oc2ccc(C=NNC(N)=O)cc2)cc1 [Compound 4h] | 4 | 4 | 4 | 4 |  |  | 
NC(=O)NN=Cc1ccc(Oc2ccc(Oc3ccccc3)cc2)cc1 [Compound 4i] |  |  | 1 | 1 |  |  | 
N#Cc1ccc(Oc2ccc(C=NNC(N)=O)cc2)cc1 [Compound 4j] |  |  |  |  | 4 | 4 | MES screen 0.25 h: number of rats out of 4 which were protected ([1]; dose 12.5 mg/kg, 0.25 h): 2; MES screen 0.5 h: number of rats out of 4 which were protected ([1]; dose 12.5 mg/kg): 4; MES screen 1 h: number of rats out of 4 which were protected ([1]; dose 12.5 mg/kg, 1 h): 4
NC(=O)NN=Cc1ccc(Oc2ccc(F)cc2Br)cc1 [Compound 5m] | 4 | 4 | 4 | 4 |  |  | MES screen 0.25 h: number of rats out of 4 which were protected ([1]; dose 50 mg/kg, 0.25 h): 4
Cc1cccc(Oc2ccc(C=NNC(N)=O)cc2)c1 [Compound 5o] |  |  |  |  | 3 | 2 | MES screen 0.5 h: number of rats out of 4 which were protected ([1]; dose 12.5 mg/kg): 4; MES screen 1 h: number of rats out of 4 which were protected ([1]; dose 12.5 mg/kg, 1 h): 4; MES screen ED50 [1]: 3.07 mg/kg; neurotoxicity screen TD50 [4]: >500 mg/kg; side effect in the scPTZ screen at the end of the 4 hours ([5]; intraperitoneal injection into mice, 300 mg/kg): continuous seizure activity followed by death
CCc1ccc(Oc2ccc(C=NNC(N)=O)cc2)cc1 [Compound 5p] |  |  |  |  | 4 | 4 | MES screen 0.5 h: number of rats out of 4 which were protected ([1]; dose 12.5 mg/kg): 2; MES screen 1 h: number of rats out of 4 which were protected ([1]; dose 12.5 mg/kg, 1 h): 4; MES screen ED50 [1]: 6.48 mg/kg
CCCc1ccc(Oc2ccc(C=NNC(N)=O)cc2)cc1 [Compound 5q] |  |  |  |  | 4 | 2 | MES screen 0.5 h: number of rats out of 4 which were protected ([1]; dose 12.5 mg/kg): 1; MES screen 1 h: number of rats out of 4 which were protected ([1]; dose 12.5 mg/kg, 1 h): 2; MES screen ED50 [1]: 2.63 mg/kg; neurotoxicity screen TD50 [4]: >500 mg/kg
